Test results: ChEMBL document CHEMBL3232804, “Synthesis and evaluation of new diaryl ether and quinoline hybrids as potential antiplasmodial and antimicrobial agents” (Bioorg Med Chem Lett, 2014)
pIC50: −log10 of the molar value. Values after ≈ are worked out from the molar mass of the structure shown.

What was measured:
[1] = Selectivity index, ratio of IC50 for african green monkey Vero cells to IC50 for chloroquine-sensitive Plasmodium falciparum 3D7; assay type: toxicity, cell-based; conditions: read-out: Ratio IC50
Escherichia coli = test: Antimicrobial activity against Escherichia coli ATCC 9637 after 24 hrs by standard broth microdilution method; assay type: functional; conditions: ATCC 9637, 24 h
Candida parapsilosis = test: Antifungal activity against Candida parapsilosis ATCC […] after 72 to 96 hrs by standard broth microdilution method; assay type: functional; conditions: Lodderomyces parapsilosis
Plasmodium falciparum [2] = test: Antiplasmodial activity against chloroquine-resistant Plasmodium falciparum K1 infected after 72 hrs by Malaria SYBR Green I-staining based fluorescence assay; assay type: functional, organism-based; conditions: K1, 72 h
Sporothrix schenckii = test: Antifungal activity against Sporothrix schenckii clinical isolate after 72 to 96 hrs by standard broth microdilution method; assay type: functional
Plasmodium falciparum [3] = test: Antiplasmodial activity against chloroquine-sensitive Plasmodium falciparum 3D7 infected after 72 hrs by Malaria SYBR Green I-staining based fluorescence assay; assay type: functional, organism-based; conditions: 3D7, 72 h
Cryptococcus neoformans = test: Antifungal activity against Cryptococcus neoformans clinical isolate after 24 to 48 hrs by standard broth microdilution method; assay type: functional
Klebsiella pneumoniae = test: Antimicrobial activity against Klebsiella pneumoniae ATCC 27736 after 24 hrs by standard broth microdilution method; assay type: functional; conditions: ATCC 27736, 24 h
Candida albicans = test: Antifungal activity against Candida albicans clinical isolate after 24 to 48 hrs by standard broth microdilution method; assay type: functional
[4] = tested on: Trichophyton mentagrophytes; test: Antifungal activity against Trichophyton mentagrophytes clinical isolate after 72 to 96 hrs by standard broth microdilution method; assay type: functional
Pseudomonas aeruginosa = test: Antimicrobial activity against Pseudomonas aeruginosa ATCC BAA-427 after 24 hrs by standard broth microdilution method; assay type: functional; conditions: ATCC BAA-427, 24 h
Aspergillus fumigatus = test: Antifungal activity against Aspergillus fumigatus clinical isolate after 72 to 96 hrs by standard broth microdilution method; assay type: functional
Staphylococcus aureus = test: Antimicrobial activity against Staphylococcus aureus ATCC 25923 after 24 hrs by standard broth microdilution method; assay type: functional; conditions: ATCC 25923, 24 h

Structure (SMILES)	selectivity ratio [1]	MIC (Escherichia coli) [mg/L]	MIC (Candida parapsilosis) [mg/L]	pIC50 (Plasmodium falciparum [2])	MIC (Sporothrix schenckii) [mg/L]	pIC50 (Plasmodium falciparum [3])	MIC (Cryptococcus neoformans) [mg/L]	MIC (Klebsiella pneumoniae) [mg/L]	MIC (Candida albicans) [mg/L]	MIC [4] [mg/L]	MIC (Pseudomonas aeruginosa) [mg/L]	MIC (Aspergillus fumigatus) [mg/L]	MIC (Staphylococcus aureus) [mg/L]
COc1ccc(Oc2ccc(N/C(=N/c3ccc(Cl)cc3)NCCCNc3ccnc4cc(Cl)ccc34)cc2)cc1	82.1	12.5 (≈ 21.3 µM)	25 (≈ 42.6 µM)	< 6.10	25 (≈ 42.6 µM)	6.69	50 (≈ 85.2 µM)	50 (≈ 85.2 µM)	50 (≈ 85.2 µM)	25 (≈ 42.6 µM)	> 50	50 (≈ 85.2 µM)	12.5 (≈ 21.3 µM)
COC(=O)/C(C)=C/c1ccc(Oc2ccc(N/C(=N/c3cccc(Cl)c3)NCCCCNc3ccnc4cc(Cl)ccc34)cc2)cc1	47.9	12.5 (≈ 18.7 µM)	> 50	7.18	50 (≈ 74.8 µM)	7.28	> 50	50 (≈ 74.8 µM)	> 50	50 (≈ 74.8 µM)	> 50	> 50	3.12 (≈ 4.67 µM)
